Experimental data reported in patent US7902238B2, “2-aminooxazolines as TAAR1 ligands” (Hoffmann-La Roche Inc., priority 2007, dated 2011).

Assays:
rat TAAR1 = rat TAAR1 (Rattus norvegicus, UniProt Q923Y9); assay: Radioligand binding on membranes of HEK293 cells stably expressing rat TAAR1
mouse TAAR1 = mouse TAAR1 (Mus musculus, UniProt Q923Y8); assay: Radioligand binding on membranes of HEK293 cells stably expressing mouse TAAR1
Sequence of mouse TAAR1 (Q923Y8 whole entry): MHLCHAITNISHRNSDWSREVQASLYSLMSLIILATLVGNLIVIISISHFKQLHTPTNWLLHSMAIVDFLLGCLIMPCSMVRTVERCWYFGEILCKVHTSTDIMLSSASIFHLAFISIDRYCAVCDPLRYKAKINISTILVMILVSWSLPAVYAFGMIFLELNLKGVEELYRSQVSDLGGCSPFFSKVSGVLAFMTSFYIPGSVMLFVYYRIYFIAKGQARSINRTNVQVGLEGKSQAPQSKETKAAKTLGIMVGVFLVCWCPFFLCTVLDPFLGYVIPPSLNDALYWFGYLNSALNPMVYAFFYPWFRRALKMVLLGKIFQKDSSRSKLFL

Sequence of rat TAAR1 (Q923Y9 whole entry): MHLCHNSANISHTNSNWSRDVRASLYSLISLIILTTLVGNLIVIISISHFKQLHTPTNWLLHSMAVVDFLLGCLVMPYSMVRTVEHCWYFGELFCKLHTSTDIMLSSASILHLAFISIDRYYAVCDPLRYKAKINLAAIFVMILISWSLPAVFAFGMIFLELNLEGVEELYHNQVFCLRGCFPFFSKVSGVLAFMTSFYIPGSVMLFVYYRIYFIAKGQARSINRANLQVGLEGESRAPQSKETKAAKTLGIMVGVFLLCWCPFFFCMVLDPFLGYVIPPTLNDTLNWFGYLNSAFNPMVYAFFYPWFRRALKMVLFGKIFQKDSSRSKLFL

SMILES: CCN(C[C@@H]1COC(N)=N1)c1ccccc1 [Example 1, (R)-4-[(Ethyl-phenyl-amino)-methyl]-4,5-dihydro-oxazol-2-ylamine]
- Ki (rat TAAR1): 1.9 nM
- Ki (mouse TAAR1): 0.9 nM

SMILES: CCN(C[C@H]1COC(N)=N1)c1ccccc1 [Example 3, (S)-4-[(Ethyl-phenyl-amino)-methyl]-4,5-dihydro-oxazol-2-ylamine]
- Ki (rat TAAR1): 1 nM
- Ki (mouse TAAR1): 1 nM

SMILES: CN(C[C@H]1COC(N)=N1)c1ccc(Cl)c(Cl)c1 [Example 7, (S)-4-{[(3,4-Dichloro-phenyl)-methyl-amino]-methyl}-4,5-dihydro-oxazol-2-ylamine]
- Ki (rat TAAR1): 0.3 nM
- Ki (mouse TAAR1): 1.4 nM

SMILES: CCN(C[C@H]1COC(N)=N1)c1ccc(Cl)cc1 [Example 11, (S)-4-{[(4-Chloro-phenyl)-ethyl-amino]-methyl}-4,5-dihydro-oxazol-2-ylamine]
- Ki (rat TAAR1): 0.9 nM
- Ki (mouse TAAR1): 3.5 nM

SMILES: CC(C)N(C[C@H]1COC(N)=N1)c1ccc(Cl)c(Cl)c1 [Example 15, (S)-4-{[(3,4-Dichloro-phenyl)-isopropyl-amino]-methyl}-4,5-dihydro-oxazol-2-ylamine]
- Ki (rat TAAR1): 0.8 nM
- Ki (mouse TAAR1): 22.4 nM

SMILES: COc1cc(N(C)C[C@H]2COC(N)=N2)ccc1Cl [Example 27, (S)-4-{[(4-Chloro-3-methoxy-phenyl)-methyl-amino]-methyl}-4,5-dihydro-oxazol-2-ylamine]
- Ki (rat TAAR1): 1.6 nM
- Ki (mouse TAAR1): 7.3 nM

SMILES: CCN(C[C@H]1COC(N)=N1)c1ccc(Cl)c(OC)c1 [Example 28, (S)-4-{[(4-Chloro-3-methoxy-phenyl)-ethyl-amino]-methyl}-4,5-dihydro-oxazol-2-ylamine]
- Ki (rat TAAR1): 0.6 nM
- Ki (mouse TAAR1): 2.3 nM

SMILES: CN(C[C@H]1COC(N)=N1)c1ccccc1 [Example 30, (S)-4-[(Methyl-phenyl-amino)-methyl]-4,5-dihydro-oxazol-2-ylamine]
- Ki (rat TAAR1): 1.7 nM
- Ki (mouse TAAR1): 16.3 nM

SMILES: CN(C[C@H]1COC(N)=N1)c1ccc(Br)cc1 [Example 31, (S)-4-{[(4-Bromo-phenyl)-methyl-amino]-methyl}-4,5-dihydro-oxazol-2-ylamine]
- Ki (rat TAAR1): 1.9 nM
- Ki (mouse TAAR1): 1.3 nM

SMILES: CCN(C[C@H]1COC(N)=N1)c1ccc(Br)cc1 [Example 32, (S)-4-{[(4-Bromo-phenyl)-ethyl-amino]-methyl}-4,5-dihydro-oxazol-2-ylamine]
- Ki (rat TAAR1): 0.6 nM
- Ki (mouse TAAR1): 2.8 nM

SMILES: CCN(C[C@H]1COC(N)=N1)c1ccc(Cl)c(Cl)c1 [Example 33, (S)-4-{[(3,4-Dichloro-phenyl)-ethyl-amino]-methyl}-4,5-dihydro-oxazol-2-ylamine]
- Ki (rat TAAR1): 0.2 nM
- Ki (mouse TAAR1): 2.2 nM

SMILES: CN(C[C@H]1COC(N)=N1)c1cccc(Br)c1 [Example 34, (S)-4-{[(3-Bromo-phenyl)-methyl-amino]-methyl}-4,5-dihydro-oxazol-2-ylamine]
- Ki (rat TAAR1): 4.7 nM
- Ki (mouse TAAR1): 1.2 nM

SMILES: CCN(C[C@H]1COC(N)=N1)c1cccc(Br)c1 [Example 37, (S)-4-{[(3-Bromo-phenyl)-ethyl-amino]-methyl}-4,5-dihydro-oxazol-2-ylamine]
- Ki (rat TAAR1): 1.8 nM
- Ki (mouse TAAR1): 9.7 nM

SMILES: COc1cc(N(C)C[C@H]2COC(N)=N2)ccc1F [Example 40, (S)-4-{[(4-Fluoro-3-methoxy-phenyl)-methyl-amino]-methyl}-4,5-dihydro-oxazol-2-ylamine]
- Ki (rat TAAR1): 2 nM
- Ki (mouse TAAR1): 1.1 nM

SMILES: COc1cc(N(Cc2ccccc2)C[C@H]2COC(N)=N2)ccc1F [Example 42, (S)-4-{[Benzyl-(4-fluoro-3-methoxy-phenyl)-amino]-methyl}-4,5-dihydro-oxazol-2-ylamine]
- Ki (rat TAAR1): 1.1 nM
- Ki (mouse TAAR1): 26.4 nM

SMILES: NC1=N[C@@H](CN(Cc2ccccc2)c2ccc(F)cc2)CO1 [Example 53, (S)-4-{[Benzyl-(4-fluoro-phenyl)-amino]-methyl}-4,5-dihydro-oxazol-2-ylamine]
- Ki (rat TAAR1): 0.9 nM
- Ki (mouse TAAR1): 18.7 nM

SMILES: NC1=N[C@@H](CN(Cc2ccccc2)c2ccc(Cl)cc2)CO1 [Example 55, (S)-4-[{Benzyl-(4-chloro-phenyl)-amino]-methyl}-4,5-dihydro-oxazol-2-ylamine]
- Ki (rat TAAR1): 0.6 nM
- Ki (mouse TAAR1): 28.8 nM

SMILES: CCN(C[C@H]1COC(N)=N1)c1cccc(C)c1 [Example 65, (S)-4-[(Ethyl-m-tolyl-amino)-methyl]-4,5-dihydro-oxazol-2-ylamine]
- Ki (rat TAAR1): 2.7 nM
- Ki (mouse TAAR1): 1.9 nM

SMILES: CN(C[C@H]1COC(N)=N1)c1ccc2ccccc2c1 [Example 77, (S)-4-[(Methyl-naphthalen-2-yl-amino)-methyl]-4,5-dihydro-oxazol-2-ylamine]
- Ki (mouse TAAR1): 0.4 nM

SMILES: CCN(C[C@H]1COC(N)=N1)c1cccc(Cl)c1 [Example 83, (S)-4-{[(3-Chloro-phenyl)-ethyl-amino]-methyl}-4,5-dihydro-oxazol-2-ylamine]
- Ki (rat TAAR1): 1 nM

SMILES: NC1=N[C@@H](CNc2cccc(Cl)c2)CO1 [Example 87, (S)-4-[(3-Chloro-phenylamino)-methyl]-4,5-dihydro-oxazol-2-ylamine]
- Ki (rat TAAR1): 7.3 nM

SMILES: CCc1cccc(N(CC)C[C@H]2COC(N)=N2)c1 [Example 92, (S)-4-{[Ethyl-(3-ethyl-phenyl)-amino]-methyl}-4,5-dihydro-oxazol-2-ylamine]
- Ki (rat TAAR1): 37000 nM

SMILES: CCc1ccc(N(CC)C[C@H]2COC(N)=N2)cc1 [Example 94, (S)-4-{[Ethyl-(4-ethyl-phenyl)-amino]-methyl}-4,5-dihydro-oxazol-2-ylamine]
- Ki (rat TAAR1): 51000 nM

SMILES: CCN(C[C@H]1COC(N)=N1)c1ccc(Cl)cc1F [Example 95, (S)-4-{[(4-Chloro-2-fluoro-phenyl)-ethyl-amino]-methyl}-4,5-dihydro-oxazol-2-ylamine]
- Ki (rat TAAR1): 1.5 nM

SMILES: CCN(C[C@H]1COC(N)=N1)c1ccc2c(c1)CCC2 [Example 99, (S)-4-[(Ethyl-indan-5-yl-amino)-methyl]-4,5-dihydro-oxazol-2-ylamine]
- Ki (rat TAAR1): 3.2 nM
- Ki (mouse TAAR1): 6 nM

SMILES: CN(C[C@H]1COC(N)=N1)c1ccc(Cl)cc1F [Example 100, (S)-4-{[(4-Chloro-2-fluoro-phenyl)-methyl-amino]-methyl}-4,5-dihydro-oxazol-2-ylamine]
- Ki (rat TAAR1): 3 nM
- Ki (mouse TAAR1): 2.7 nM

SMILES: CN(C[C@H]1COC(N)=N1)c1cccc(-c2cnco2)c1 [Example 105, (S)-4-{[Methyl-(3-oxazol-5-yl-phenyl)-amino]-methyl}-4,5-dihydro-oxazol-2-ylamine]
- Ki (rat TAAR1): 63.5 nM
- Ki (mouse TAAR1): 3.8 nM

SMILES: CCN(C[C@H]1COC(N)=N1)c1cccc(-c2cnco2)c1 [Example 106, (S)-4-{[Ethyl-(3-oxazol-5-yl-phenyl)-amino]-methyl}-4,5-dihydro-oxazol-2-ylamine]
- Ki (rat TAAR1): 18.8 nM
- Ki (mouse TAAR1): 4.1 nM

SMILES: CCN(C[C@H]1COC(N)=N1)c1ccccc1F [Example 107, (S)-4-{[Ethyl-(2-fluoro-phenyl)-amino]-methyl}-4,5-dihydro-oxazol-2-ylamine]
- Ki (rat TAAR1): 14.9 nM
- Ki (mouse TAAR1): 3.9 nM

SMILES: CCN(C[C@H]1COC(N)=N1)c1cc(F)cc(C(F)(F)F)c1 [Example 109, (S)-4-{[Ethyl-(3-fluoro-5-trifluoromethyl-phenyl)-amino]-methyl}-4,5-dihydro-oxazol-2-ylamine]
- Ki (rat TAAR1): 1.7 nM
- Ki (mouse TAAR1): 2.5 nM

SMILES: CCN(C[C@H]1COC(N)=N1)c1ccccc1Cl [Example 111, (S)-4-{[(2-Chloro-phenyl)-ethyl-amino]-methyl}-4,5-dihydro-oxazol-2-ylamine]
- Ki (rat TAAR1): 58.7 nM
- Ki (mouse TAAR1): 6 nM

SMILES: Cc1ccc(N(C)C[C@H]2COC(N)=N2)c(F)c1 [Example 113, (S)-4-{[(2-Fluoro-4-methyl-phenyl)-methyl-amino]-methyl}-4,5-dihydro-oxazol-2-ylamine]
- Ki (rat TAAR1): 6.2 nM
- Ki (mouse TAAR1): 2.8 nM

SMILES: Cc1ccc(NC[C@H]2COC(N)=N2)c(F)c1 [Example 117, (S)-4-[(2-Fluoro-4-methyl-phenylamino)-methyl]-4,5-dihydro-oxazol-2-ylamine]
- Ki (rat TAAR1): 18.2 nM
- Ki (mouse TAAR1): 2.8 nM

SMILES: NC1=N[C@@H](CNc2ccccc2Cl)CO1 [Example 119, (S)-4-[(2-Chloro-phenylamino)-methyl]-4,5-dihydro-oxazol-2-ylamine]
- Ki (rat TAAR1): 4.2 nM
- Ki (mouse TAAR1): 1.1 nM

SMILES: CN(C[C@@H]1COC(N)=N1)c1ccc(Cl)cc1 [Example 125, (R)-4-{[(4-Chloro-phenyl)-methyl-amino]-methyl}-4,5-dihydro-oxazol-2-ylamine]
- Ki (rat TAAR1): 5.6 nM
- Ki (mouse TAAR1): 2.3 nM

SMILES: CCN(C[C@@H]1COC(N)=N1)c1ccc(Cl)cc1 [Example 126, (R)-4-{[(4-Chloro-phenyl)-ethyl-amino]-methyl}-4,5-dihydro-oxazol-2-ylamine]
- Ki (rat TAAR1): 1.2 nM
- Ki (mouse TAAR1): 1.6 nM

SMILES: NC1=N[C@@H](CNc2ccc(C(F)(F)F)c(F)c2)CO1 [Example 127, (S)-4-[(3-Fluoro-4-trifluoromethyl-phenylamino)-methyl]-4,5-dihydro-oxazol-2-ylamine]
- Ki (rat TAAR1): 15.7 nM
- Ki (mouse TAAR1): 4.6 nM

SMILES: CN(C[C@@H]1COC(N)=N1)c1ccc(F)cc1 [Example 128, (R)-4-{[(4-Fluoro-phenyl)-methyl-amino]-methyl}-4,5-dihydro-oxazol-2-ylamine]
- Ki (rat TAAR1): 11.6 nM
- Ki (mouse TAAR1): 4.7 nM

SMILES: CC(C)N(C[C@@H]1COC(N)=N1)c1ccc(Cl)cc1 [Example 129, (R)-4-{[(4-Chloro-phenyl)-isopropyl-amino]-methyl}-4,5-dihydro-oxazol-2-ylamine]
- Ki (rat TAAR1): 2.7 nM
- Ki (mouse TAAR1): 8.8 nM

SMILES: NC1=N[C@@H](CNc2ccc(C(F)(F)F)cc2)CO1 [Example 132, (S)-4-[(4-Trifluoromethyl-phenylamino)-methyl]-4,5-dihydro-oxazol-2-ylamine]
- Ki (rat TAAR1): 24.8 nM
- Ki (mouse TAAR1): 4.7 nM

SMILES: CCN(C[C@H]1COC(N)=N1)c1ccc(C(F)(F)F)cc1 [Example 133, (S)-4-{[Ethyl-(4-trifluoromethyl-phenyl)-amino]-methyl}-4,5-dihydro-oxazol-2-ylamine]
- Ki (rat TAAR1): 4.9 nM
- Ki (mouse TAAR1): 4.2 nM

SMILES: CN(C[C@H]1COC(N)=N1)c1ccc(C(F)(F)F)cc1 [Example 134, (S)-4-{[Methyl-(4-trifluoromethyl-phenyl)-amino]-methyl}-4,5-dihydro-oxazol-2-ylamine]
- Ki (rat TAAR1): 3.6 nM
- Ki (mouse TAAR1): 5.7 nM

SMILES: NC1=N[C@@H](CNc2cccc(Cl)n2)CO1 [Example 135, ((S)-2-Amino-4,5-dihydro-oxazol-4-ylmethyl)-(6-chloro-pyridin-2-yl)-amine]
- Ki (rat TAAR1): 48.9 nM
- Ki (mouse TAAR1): 8.7 nM
